This note sets out measurements from PMC12113707, “Microwave Assisted Synthesis of Antioxidant Dihydro-Pyrazole Hybrids as Possible Lipoxygenase Inhibitors” (Molecules, 2025).

Data set [1] in a line: Experimental lipophilicity RM by reverse phase thin layer chromatography (RP-TLC). In kind it is physicochemical. Particulars: methanol-water mobile phase. As for the experimental part: Lipophilicity is a main physicochemical parameter for bioactive molecules, linking solubility, ligand-target binding interactions, membrane permeability absorption, distribution, bioavailability, metabolism, elimination and toxicological effects (ADMET), playing an important role in biological activity. The experimental values of lipophilicity RM were determined by reverse phase thin layer chromatography. For the experimental determination of lipophilicity the hydrophilic-lipid phase system is a mixture of methanol- water (90/10%). The theoretical lipophilicity values are determined by the Bioloom program (http://biobyte.com/bb/prod/bioloom.html, accessed on 8 April 2024) (Table 1). According to the calculated clog P values, the most lipophilic compounds are 3c, 3d and 3f while the less lipophilic ones are compounds 5a and 5b.
Melting points were determined on a MEL-Temp II (Lab. Devices, Holliston, MA, USA). In vitro tests were carried out using a UV-Vis spectra and recorded on a Perkin-Elmer 554 double-beam spectrophotometer (Perkin-Elmer Corporation Ltd., Lane Beaconsfield, Bucks, UK). Infrared spectra (KBr pellets) were recorded with Perkin-Elmer 597 spectrophotometer (Perkin-Elmer Corporation Ltd., Lane Beaconsfield, Bucks, UK). The ^1H […] Magnetic Resonance (^1H-NMR) spectra were acquired on an Agilent 500/54 (DD2) at 500 MHz in CDCl3 using tetramethylsilane as an internal standard. Agilent 500/54 (DD2) ^13C NMR spectra were acquired at 125 MHz in CDCl3 solutions with tetramethylsilane serving as an internal reference. Coupling constants J are expressed in Hz, and chemical shifts are reported in ppm. Thermo Fisher Scientific Inc., Waltham, MA, USA, used MeOH as the solvent to calculate mass spectra using an LC-PDA-MS Thermo Finnigan system (LC Pump Plus, Autosampler, Surveyor PDA Plus Detector) interfaced with an ESI MSQ Plus (Thermo Finnigan). Thin-layer chromatography using 5554 F254 Silica gel/TLC cards (Merck and Fluka Chemie GmbH Buchs, Steinheim, Switzerland) was used to monitor the reaction progress. Silica gel 60 F254 plates with a diameter of 2 mm were utilized for preparative thin layer chromatography (prep TLC) by Merck KgaA (ICH078057). Merck (20 × 20 cm) plates were used for the experimental assessment of the lipophilicity using reverse phase thin-layer chromatography (RP-TLC) TLC-Silica gel 60 F254 DC Kieselgel.
In this experiment, TLC silica gel 60 F254 1.05715.0001 commercial glass plates from Merck were used. The plates were first immersed in a 5% v/v solution of liquid paraffin in petroleum ether and left for 90 s to become completely impregnated with the stable lipophilic phase. They were then activated by standing for 30 min in an oven at 40 °C and kept there until the time of use. A 70% v/v MeOH/H2O mixture was used as the mobile phase. The mobile phase was saturated with a few drops of liquid paraffin before being used. The spots of the compounds were placed on the plate at a distance of 2 cm from the edges of the plate and also from each other. The development of the spots on the plates was carried out in closed chromatography chambers where the atmosphere is saturated with the mobile phase at room temperature. At the end of development, the solvent-formed front was marked and the plates are dried at 80 °C for about 20–30 min. The appearance of the spots was made under an ultraviolet light lamp. The Rf values were the average of 5–6 measurements for each compound and assuming that the compounds will have been rotated to different positions on the plates. The RM values were calculated from the corresponding Rf values according to the equation [67].RM = log [(1/Rf) − 1](1)

Data set [2] in a line: Interaction with the stable free radical DPPH (reducing activity). The following applies: 517 nm. As for the experimental part:
In general, the compounds present moderate to good antioxidant activity. It seems that the dibenzylacetones present satisfactory antioxidant activity compared to the hybrids at 60 min (1b, 1d and 1f).
The tested compounds (0.1 mM final concentration) dissolved in DMSO were incubated with a solution of DPPH in absolute ethanol in absence of light. The absorbance at 20 and 60 min at 517 nm was recorded at room temperature. NDGA was used as the reference compound.
(In general: DPPH is a stable violet radical that fades when it is reduced.)

The nature of data set [3]: Inhibition of AAPH-induced linoleic acid peroxidation. The following applies: 37 °C, 234 nm. As for the experimental part: The ability of the compounds to inhibit AAPH-induced peroxidation of linoleic acid is another assay to investigate the antioxidant properties of the compounds. Azo compounds such as 2,2′-azobis dihydrochloride (2-amidinopropane) (AAPH) are capable of generating free radicals through spontaneous decomposition at 37 °C. The R- radicals react immediately with air-oxygen to produce peroxy radicals. AAPH was therefore used as the radical initiator and sodium linoleate as substrate subjected to peroxidation. Measurements were carried out at 234 nm using a UV/V is spectrophotometer. Dichalcone 1i substituted with two phenyl groups presents the lowest lipophilicity. […] Therefore, hydrophilic substituents offer an increase in activity.
The interaction of free radicals with cell membrane lipids induces free radical chain reactions, a process called lipid peroxidation. 930 μL of a phosphate buffer solution (0.05 M, pH = 7.4), 10 μL of the sodium linolate solution (16 mM in a buffer solution of Tris-HCl pH = 9) and 10 μL of the tested compounds (stock solutions 100 μΜ) were mixed and the oxidative procedure started after the addition of 50 μL AAPH at 37 °C under air conditions. The conjugated diene’s absorbance was measured at 234 nm at a thermostable spectrophotometer (37 °C) according to previous publication.

In data set [4] the target is T1, soybean lipoxygenase (SLOX-1) (Glycine max, UniProt P08170).
T1 construct: 200 μL of plant-derived lipoxygenase solution (1:9 × 10^−4 w/v, in saline); purchased Sigma Chemical, Co; host or cells: soybean (plant-derived)
T1 sequence (P08170 1-839): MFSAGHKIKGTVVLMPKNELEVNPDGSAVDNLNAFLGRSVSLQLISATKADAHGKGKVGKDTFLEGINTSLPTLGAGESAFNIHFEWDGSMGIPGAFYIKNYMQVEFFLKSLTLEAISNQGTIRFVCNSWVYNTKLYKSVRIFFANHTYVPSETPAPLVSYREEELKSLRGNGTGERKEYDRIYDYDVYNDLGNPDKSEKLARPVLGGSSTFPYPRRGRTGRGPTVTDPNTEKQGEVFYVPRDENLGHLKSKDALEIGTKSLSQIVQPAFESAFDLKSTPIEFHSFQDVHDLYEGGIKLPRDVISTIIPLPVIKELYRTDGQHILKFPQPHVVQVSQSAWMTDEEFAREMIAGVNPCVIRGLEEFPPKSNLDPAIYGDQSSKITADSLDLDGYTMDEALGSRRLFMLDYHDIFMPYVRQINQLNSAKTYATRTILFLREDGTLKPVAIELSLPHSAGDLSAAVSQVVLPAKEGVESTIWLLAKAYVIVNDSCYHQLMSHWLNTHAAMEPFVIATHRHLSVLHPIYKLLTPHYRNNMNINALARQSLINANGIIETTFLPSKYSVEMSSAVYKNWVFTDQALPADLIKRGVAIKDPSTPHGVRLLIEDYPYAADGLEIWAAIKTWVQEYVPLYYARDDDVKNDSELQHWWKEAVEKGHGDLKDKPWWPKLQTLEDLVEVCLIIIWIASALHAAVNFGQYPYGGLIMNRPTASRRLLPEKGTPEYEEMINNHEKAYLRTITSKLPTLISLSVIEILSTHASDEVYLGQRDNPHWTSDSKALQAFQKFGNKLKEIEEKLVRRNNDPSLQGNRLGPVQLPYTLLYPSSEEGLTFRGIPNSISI
Briefly: Inhibition of soybean lipoxygenase in vitro. In kind it is biochemical. Particulars: pH 9, sodium linoleate substrate; for inhibition at 100 µM: read-out: LOX% Inhibition, 100 μM (±SD). As for the experimental part:
Soybean lipoxygenase SLOX-1 at pH 9 is used in vitro. During this assay linoleic acid sodium salt is converted to the corresponding 13-hydroperoxide. The reaction is recorded photometrically at 234 nm using the UV-based enzyme assay. […] It is known that soybean LOX inhibitory activity induced by NSAIDs is qualitatively quite similar to the inhibition observed on the rat mast cells LOX and this assay may be used as a qualitative or semi-quantitative screen for such activity.
To a quartz cell, add 790 μL of Tris-HCl pH = 9.0 buffer, 200 μL of plant-derived lipoxygenase solution (1:9 × 10^−4 w/v, in saline), 10 μL of the test compound solution and 100 μL of sodium linoleate solution (3 mM concentration). The absorbance was measured at 234 nm, where the change in absorbance due to the conversion of linoleic acid to […] was recorded. A solution of 790 μL of Tris-HCl pH = 9.0 buffer, 200 μL of a plant-derived lipoxygenase solution (1:9 × 10^−4 w/v, in saline), 10 μL of DMSO and 100 μL of sodium linoleate solution (3 mM concentration) was used as a control.

Usually IC50 stands for the point on the concentration scale where inhibition reaches its midpoint. For the compound `O=C(/C=C/c1ccccc1)/C=C/c1ccccc1` [Compound 1a, (1E,4E)-1,5-diphenyl-1,4-pentadien-3-one], the “RM ± SD” value in data set [1] came out at 0.10 ± 0.003. Besides, in data set [2], the “RA%, 100 μM, 20 min (±SD)” value came to 5 ± 0.5% and the “RA%, 100 μM, 60 min (±SD)” value turned out to be 10 ± 0.5%. Moreover, the “AAPH% Inhibition, 100 μM (±SD)” value in data set [3] was 69 ± 0.3%. Further, the IC50 in data set [4] (read-out: LOX IC50 (μM) (±SD)) was found to be 10 µM.

As a reminder, the inhibition is the share of the control response that was lost under treatment. Turning to `O=C(/C=C/c1ccc(F)cc1)/C=C/c1ccc(F)cc1` [Compound 1b, (1E,4E)-1,5-bis(4-fluorophenyl)-1,4-pentadien-3-one], in data set [1], the “RM ± SD” value was found to be 0.19 ± 0.001. Also, in data set [2], the “RA%, 100 μM, 20 min (±SD)” value worked out at 13 ± 0.6% and the “RA%, 100 μM, 60 min (±SD)” value is given as 100 ± 1.1%. Besides, the “AAPH% Inhibition, 100 μM (±SD)” value in data set [3] is 37 ± 0.1%. Moreover, the inhibition at 100 µM in data set [4] was 30 ± 0.1%.

For `Brc1ccc(/C=C/C2=NN(c3ccccc3)C(c3ccc(Br)cc3)C2)cc1` (stereo not shown) [Compound 2c], the “RM ± SD” value in data set [1] stood at 2.1 ± 0.17. In addition, the “RA%, 100 μM, 20 min (±SD)” value in data set [2] was 21 ± 0.6%. Also, in data set [3], the “AAPH% Inhibition, 100 μM (±SD)” value is reported as 68 ± 0.6%.

Regarding `N#Cc1ccc(N2N=C(/C=C/c3ccccc3)CC2c2ccccc2)cc1` (stereo not shown) [Compound 4a, (E)-4-(5-phenyl-3-styryl-4,5-dihydro-1H-pyrazo-1-yl)-benzonitrile], the “RM ± SD” value in data set [1] is listed as −0.31 ± 0.023. Moreover, the “AAPH% Inhibition, 100 μM (±SD)” value in data set [3] was found to be 98 ± 0.4%. In addition, in data set [4], the inhibition at 100 µM is 39 ± 0.4%.

On to `N#Cc1ccc(N2N=C(/C=C/c3ccc(F)cc3)CC2c2ccc(F)cc2)cc1` (stereo not shown) [Compound 4b, (E)-4-(5-(4-fluorophenyl)-3-(4-fluorostyryl)-4,5-dihydro-1H-pyrazo-1-yl)-benzonitrile], for which the “RM ± SD” value in data set [1] came out at 0.61 ± 0.053. Further, the “RA%, 100 μM, 20 min (±SD)” value in data set [2] is reported as 2 ± 0.1%. The “AAPH% Inhibition, 100 μM (±SD)” value in data set [3] came to 97 ± 0.6%.

Regarding `N#Cc1ccc(N2N=C(/C=C/c3ccc(C(F)(F)F)cc3)CC2c2ccc(C(F)(F)F)cc2)cc1` (stereo not shown) [Compound 4f, (E)-4-(5-(4-(trifluoromethyl)phenyl)-3-(4-(trifluoromethyl)styryl)-4,5-dihydro-1H-pyrazol-1-yl)-benzonitrile], in data set [1], the “RM ± SD” value is on record as 0.8 ± 0.031. Moreover, in data set [3], the “AAPH% Inhibition, 100 μM (±SD)” value stood at 12 ± 1.1%. Further, the inhibition at 100 µM in data set [4] is 22 ± 1.8%.

In the case of `NC(=O)N1N=C(/C=C/c2ccccc2)CC1c1ccccc1` (stereo not shown) [Compound 5a, (E)-5-phenyl-3-styryl-4,5-dihydro-1H-pyrazole-1-carboxamide], in data set [1], the “RM ± SD” value stood at 0.06 ± 0.005. For the same compound, the “AAPH% Inhibition, 100 μM (±SD)” value in data set [3] is 29 ± 2.2%. Besides, the inhibition at 100 µM in data set [4] was found to be 4 ± 0.3%.

As for `NC(=O)N1N=C(/C=C/c2ccc(Br)cc2)CC1c1ccc(Br)cc1` (stereo not shown) [Compound 5c, (E)-5-(4-bromophenyl)-3-(4-bromostyryl)-4,5-dihydro-1H-pyrazole-1-carboxamide], the “RM ± SD” value in data set [1] is 0.60 ± 0.055. Besides, in data set [3], the “AAPH% Inhibition, 100 μM (±SD)” value worked out at 85 ± 0.6%. In addition, the inhibition at 100 µM in data set [4] worked out at 37 ± 0.6%.

As for `CC(=O)N1N=C(/C=C/c2ccc(F)cc2)CC1c1ccc(F)cc1` (stereo not shown) [Compound 6b, (E)-5-(4-fluorophenyl)-3-(4-fluorostyryl)-4,5-dihydro-1-H-pyrazol-1-ethan-1-one], the “RM ± SD” value in data set [1] is 0.24 ± 0.021. Also, the “AAPH% Inhibition, 100 μM (±SD)” value in data set [3] was 46 ± 0.6%. Further, the inhibition at 100 µM in data set [4] was 26 ± 0.3%.

For `CC(=O)N1N=C(/C=C/c2ccc(Br)cc2)CC1c1ccc(Br)cc1` (stereo not shown) [Compound 6c, (E)-5-(4-bromophenyl)-3-(4-bromostyrene)-4,5-dihydro-1-H-pyrazol-1-ethan-1-one], the “RM ± SD” value in data set [1] came to 0.78 ± 0.051. Further, the “AAPH% Inhibition, 100 μM (±SD)” value in data set [3] worked out at 71 ± 0.4%. Also, in data set [4], the inhibition at 100 µM turned out to be 1 ± 0.07%.

As for `CC(Cc1ccc(O)c(O)c1)C(C)Cc1ccc(O)c(O)c1` (stereo not shown) [NDGA, Nordihydroguaretic acid, reference compound], in data set [2], the “RA%, 100 μM, 20 min (±SD)” value was 87% and the “RA%, 100 μM, 60 min (±SD)” value was 93%.

Take `Cc1c(C)c2c(c(C)c1O)CCC(C)(C(=O)O)O2` (stereo not shown) [Trolox, 6-Hydroxy-2,5,7,8-tetramethyl-chroman2-carboxylic acid, reference compound]: in data set [3], the “AAPH% Inhibition, 100 μM (±SD)” value is reported as 92%.
